In patent US7294642B2, “1,3-Diamino-2-hydroxypropane pro-drug derivatives” (Elan Pharmaceuticals, Inc., priority 2002, dated 2007):

Assay: Acyl group migration (rearrangement) of pro-drug in DMSO-d6/buffer solution monitored by 19F-NMR
Assay type: physicochemical
Protocol: A compound of formula (I) OR (X) (5 mg) is dissolved in DMSO-d6 (500 μL) and either pH 4 buffer solution (500 μL, potassium hydrogen phthalate buffer) or pH 7 buffer solution (500 μL, sodium and potassium phosphate buffer) is added. The sample is then heated to 40° C. The O-acyl or N-acyl to N-terminal N-acyl migration is monitored by observing the change in chemical shift for the aromatic fluorines using ^19F-NMR. (Fluorine shifts associated with the desired migration were confirmed by spiking with authentic analogue). The sample is analyzed by ^19F-NMR at approxiamately 0, 1.5, 3, 24, 48, and 144 hours. The amount of O-acyl pro-drug, N-acyl pro-drug, and desired migration product at each time point are assigned by integrating the corresponding NMR signal.
N˜1˜-[(2R,3S)-3-amino-4-(3,5-difluorophenyl)-2-hydroxybutyl]-5-(1,3-oxazol-2-yl)-N˜3˜,N˜3˜-dipropyl-N˜1˜-[3-(trifluoromethyl)benzyl]isophthalamide hydrochloride (PREPARATION 7, 5 mg) is dissolved in DMSO-d6 (500 μL) and pH 4 buffer solution (500 μL, potassium hydrogen phthalate buffer) is added. The sample is then heated to 40° C. The N-acyl to N-terminal N-acyl migration is monitored by observing the change in chemical shift for the aromatic fluorines using ^19F-NMR. (Fluorine shifts for the desired migration product in the presence of buffer was confirmed by spiking with authentic migration product, N^1-((1S,2R)-1-(3,5-difluorobenzyl)-2-hydroxy-3-{[3-(trifluoromethyl)benzyl]amino}propyl)-5-(1,3-oxazol-2-yl)-N^3,N^3-dipropylisophthalamide.) NMR data is collected at 0, 1, 3, 25, 48, 96, and 144 hours. The amount of N-acyl pro-drug and desired migration product present at each time point is assigned by integrating the corresponding NMR signal.
The following examples illustrate the solution acyl group migration of compounds of the formulae (I) and (X) as observed by ^19F NMR spectroscopy. Data were collected as described in Example 1, above.

Structure (SMILES): CCCN(CCC)C(=O)c1cc(C(=O)N(Cc2cccc(C(F)(F)F)c2)C[C@@H](O)[C@@H](N)Cc2cc(F)cc(F)c2)cc(-c2ncco2)c1.Cl [Preparation 20, N^1-[(2R,3S)-3-amino-4-(3,5-difluorophenyl)-2-hydroxybutyl]-5-(1,3-oxazol-2-yl)-N^3,N^3-dipropyl-N^1-[3-(trifluoromethyl)benzyl]-isophthalamide hydrochloride]
- HEA product (% present) (pH 4, 40° C., time 0 hr): 0%
- N-acyl prodrug (% present) (pH 4, 40° C., time 0 hr): 100%
- O-acyl pro-drug (% present) (pH 4, 40° C., time 0 hr): 0%
- HEA product (% present) (pH 4, 40° C., time 1 hr): 3%
- N-acyl prodrug (% present) (pH 4, 40° C., time 1 hr): 97%
- O-acyl pro-drug (% present) (pH 4, 40° C., time 1 hr): 0%
- HEA product (% present) (pH 4, 40° C., time 3 hr): 4%
- N-acyl prodrug (% present) (pH 4, 40° C., time 3 hr): 96%
- O-acyl pro-drug (% present) (pH 4, 40° C., time 3 hr): 0%
- HEA product (% present) (pH 4, 40° C., time 24 hr): 7%
- N-acyl prodrug (% present) (pH 4, 40° C., time 24 hr): 93%
- O-acyl pro-drug (% present) (pH 4, 40° C., time 24 hr): 0%
- HEA product (% present) (pH 4, 40° C., time 48 hr): 8%
- N-acyl prodrug (% present) (pH 4, 40° C., time 48 hr): 92%
- O-acyl pro-drug (% present) (pH 4, 40° C., time 48 hr): 0%
- HEA product (% present) (pH 4, 40° C., time 96 hr): 12%
- N-acyl prodrug (% present) (pH 4, 40° C., time 96 hr): 88%
- O-acyl pro-drug (% present) (pH 4, 40° C., time 96 hr): 0%
- HEA product (% present) (pH 7, 40° C., time 0 hr): 0%
- N-acyl prodrug (% present) (pH 7, 40° C., time 0 hr): 100%
- O-acyl pro-drug (% present) (pH 7, 40° C., time 0 hr): 0%
- HEA product (% present) (pH 7, 40° C., time 1 hr): 7%
- N-acyl prodrug (% present) (pH 7, 40° C., time 1 hr): 93%
- O-acyl pro-drug (% present) (pH 7, 40° C., time 1 hr): 0%
- HEA product (% present) (pH 7, 40° C., time 3 hr): 12%
- N-acyl prodrug (% present) (pH 7, 40° C., time 3 hr): 88%
- O-acyl pro-drug (% present) (pH 7, 40° C., time 3 hr): 0%
- HEA product (% present) (pH 7, 40° C., time 24 hr): 51%
- N-acyl prodrug (% present) (pH 7, 40° C., time 24 hr): 49%
- O-acyl pro-drug (% present) (pH 7, 40° C., time 24 hr): 0%
- HEA product (% present) (pH 7, 40° C., time 48 hr): 73%
- N-acyl prodrug (% present) (pH 7, 40° C., time 48 hr): 27%
- O-acyl pro-drug (% present) (pH 7, 40° C., time 48 hr): 0%
- HEA product (% present) (pH 7, 40° C., time 96 hr): 88%
- N-acyl prodrug (% present) (pH 7, 40° C., time 96 hr): 12%
- O-acyl pro-drug (% present) (pH 7, 40° C., time 96 hr): 0%

Structure (SMILES): C#Cc1cccc(C2(NC[C@@H](OC(=O)c3cc(C(=O)N(CCC)CCC)cc(-c4ncco4)c3)[C@@H](N)Cc3cc(F)cc(F)c3)CC2)c1 [Preparation 22, (1R,2S)-2-amino-3-(3,5-difluorophenyl)-1-({[1-(3-ethynylphenyl)cyclopropyl]amino}methyl)propyl 3-[(dipropylamino)carbonyl]-5-(1,3-oxazol-2-yl)benzoate]
- HEA product (% present) (pH 4, 40° C., time 0 hr): 0%
- N-acyl prodrug (% present) (pH 4, 40° C., time 0 hr): 0%
- O-acyl pro-drug (% present) (pH 4, 40° C., time 0 hr): 100%
- HEA product (% present) (pH 4, 40° C., time 0.5 hr): 7%
- N-acyl prodrug (% present) (pH 4, 40° C., time 0.5 hr): 0%
- O-acyl pro-drug (% present) (pH 4, 40° C., time 0.5 hr): 93%
- HEA product (% present) (pH 4, 40° C., time 1 hr): 13%
- N-acyl prodrug (% present) (pH 4, 40° C., time 1 hr): 0%
- O-acyl pro-drug (% present) (pH 4, 40° C., time 1 hr): 87%
- HEA product (% present) (pH 4, 40° C., time 3 hr): 27%
- N-acyl prodrug (% present) (pH 4, 40° C., time 3 hr): 0%
- O-acyl pro-drug (% present) (pH 4, 40° C., time 3 hr): 66%
- HEA product (% present) (pH 4, 40° C., time 6 hr): 42%
- N-acyl prodrug (% present) (pH 4, 40° C., time 6 hr): 0%
- O-acyl pro-drug (% present) (pH 4, 40° C., time 6 hr): 49%
- HEA product (% present) (pH 4, 40° C., time 24 hr): 78%
- N-acyl prodrug (% present) (pH 4, 40° C., time 24 hr): 0%
- O-acyl pro-drug (% present) (pH 4, 40° C., time 24 hr): 9%
- HEA product (% present) (pH 4, 40° C., time 48 hr): 86%
- N-acyl prodrug (% present) (pH 4, 40° C., time 48 hr): 0%
- O-acyl pro-drug (% present) (pH 4, 40° C., time 48 hr): 0%
- HEA product (% present) (pH 7, 40° C., time 0 hr): 0%
- N-acyl prodrug (% present) (pH 7, 40° C., time 0 hr): 0%
- O-acyl pro-drug (% present) (pH 7, 40° C., time 0 hr): 100%
- HEA product (% present) (pH 7, 40° C., time 0.5 hr): 10%
- N-acyl prodrug (% present) (pH 7, 40° C., time 0.5 hr): 0%
- O-acyl pro-drug (% present) (pH 7, 40° C., time 0.5 hr): 10%
- HEA product (% present) (pH 7, 40° C., time 1 hr): 100%
- N-acyl prodrug (% present) (pH 7, 40° C., time 1 hr): 0%
- O-acyl pro-drug (% present) (pH 7, 40° C., time 1 hr): 0%
